{"source": "paper PMC2361651", "about": "(British Journal of Cancer, 2005)", "assay": "Plasma pharmacokinetics of SU5416 and metabolites in Phase I patients (HPLC UV)", "type": "in vivo, human", "conditions": "twice weekly i.v. infusion; for clearance: read-out: CL (observed) (converted); for half-life: read-out: T1/2λz (converted); for Vd: read-out: Vz (observed)", "experimental": "Samples were taken prior to treatment infusion, 15 min into the infusion, at completion of the infusion and then at 5, 10, 20, 30, 45, 60, 120 and 240 min following the infusion. […] At the designated times, 4.0 ml of blood were collected into a lithium heparin tube, gently inverted and placed on ice to maintain the sample at 2–8°C. All samples were immediately centrifuged at 6000 r.p.m. at 4°C for 10 min, the supernatant divided between two 1.5 ml Nalgene cryovials and snap frozen in liquid nitrogen. Separated plasma samples were subsequently stored at −70°C until analysis.\nPharmacokinetic analysis was performed using a fully validated HPLC UV method ([Stopeck et al, 2002]). Plasma samples, standards (25–2000 ng ml^−1) and quality controls spiked with internal standards were extracted with acetonitrile. Following centrifugation, drying and reconstitution in 200 μl mobile phase, 20 μl were analysed by HPLC UV. Chromatography was carried out using a C18 analytical column, with a gradient mobile phase containing acetonitrile and 10 mM ammonium formate at pH 2.6. The flow rate was 0.8 ml min^−1 and the run-time 21 min. Detection was via UV absorption at a wavelength of 440 nm. The accuracy of the assay, reflected in relative error of measured concentration to theoretical (prepared) concentrations, was between 0.9 and 5.6% for all quality control samples.\nPharmacokinetic parameters were evaluated using WinNonLin Software®.", "key": {"[1]": {"conditions": "human, plasma, iv, 85 mg m^−2, individual patients, dose 85 mg m^−2, cycle 1inj2"}, "[2]": {"conditions": "human, plasma, iv, 85 mg m^−2, individual patients, dose 85 mg m^−2, cycle 1inj8"}, "[3]": {"conditions": "human, plasma, iv, 85 mg m^−2, individual patients, dose 85 mg m^−2, cycle 2inj8"}, "[4]": {"conditions": "human, plasma, iv, 110 mg m^−2, individual patients, dose 110 mg m^−2, cycle 1inj2"}, "[5]": {"conditions": "human, plasma, iv, 110 mg m^−2, individual patients, dose 110 mg m^−2, cycle 1inj8"}, "[6]": {"conditions": "individual patients, dose 48 mg m^−2, cycle 1inj2"}, "[7]": {"conditions": "individual patients, dose 48 mg m^−2, cycle 1inj8"}, "[8]": {"conditions": "individual patients, dose 65 mg m^−2, cycle 1inj2"}, "[9]": {"conditions": "individual patients, dose 65 mg m^−2, cycle 1inj8"}, "[10]": {"conditions": "individual patients, dose 85 mg m^−2, cycle 1inj2"}, "[11]": {"conditions": "individual patients, dose 85 mg m^−2, cycle 1inj8"}, "[12]": {"conditions": "individual patients, dose 110 mg m^−2, cycle 1inj2"}, "[13]": {"conditions": "individual patients, dose 145 mg m^−2, cycle 1inj2"}, "[14]": {"conditions": "individual patients, dose 145 mg m^−2, cycle 1inj8"}, "[15]": {"conditions": "individual patients, dose 145 → 190 mg m^−2, cycle 1inj2"}, "[16]": {"conditions": "individual patients, dose 145 → 190 mg m^−2, cycle 1inj8"}}, "note": "Where “and” joins values, the source holds several entries; their conditions need not be identical. Equal entries are not always repeated. Where two headings read alike, the source gives them in different places."}
{"smiles": "Cc1cc(C)c(/C=C2\\C(=O)Nc3ccccc32)[nH]1", "note": "[SU5416, Z-3-[(2,4-dimethylpyrrol-5-yl)methylidenyl]-2-indolinone]", "values": [{"measurement": "clearance", "setting": "[1]", "result": 1320, "unit": "mL/min"}, {"measurement": "Cmax", "setting": "human, plasma, iv, 85 mg m^−2, individual patients, dose 85 mg m^−2, cycle 1inj2, read-out: Cmax", "result": 2.33, "unit": "µg/mL"}, {"measurement": "half-life", "setting": "[1]", "result": 23.4, "unit": "min"}, {"measurement": "AUC(0-t)", "setting": "[2]", "result": 2.38, "unit": "µg·h/mL"}, {"measurement": "clearance", "setting": "[2]", "result": 1000, "unit": "mL/min"}, {"measurement": "AUC(0-t)", "setting": "[3]", "result": 1.62, "unit": "µg·h/mL"}, {"measurement": "clearance", "setting": "[3]", "result": 1470, "unit": "mL/min"}, {"measurement": "Cmax", "setting": "human, plasma, iv, 85 mg m^−2, individual patients, dose 85 mg m^−2, cycle 2inj8, read-out: Cmax", "result": 2.8, "unit": "µg/mL"}, {"measurement": "half-life", "setting": "[3]", "result": 44.4, "unit": "min"}, {"measurement": "Vd", "setting": "[3]", "result": 94, "unit": "L"}, {"measurement": "AUC(0-t)", "setting": "[4]", "result": 4.02, "unit": "µg·h/mL"}, {"measurement": "clearance", "setting": "[4]", "result": 767, "unit": "mL/min"}, {"measurement": "Cmax", "setting": "human, plasma, iv, 110 mg m^−2, individual patients, dose 110 mg m^−2, cycle 1inj2, read-out: Cmax", "result": 3.51, "unit": "µg/mL"}, {"measurement": "half-life", "setting": "[4]", "result": 37.2, "unit": "min"}, {"measurement": "Vd", "setting": "[4]", "result": 41, "unit": "L"}, {"measurement": "AUC(0-t)", "setting": "[5]", "result": 3.8, "unit": "µg·h/mL"}, {"measurement": "clearance", "setting": "[5]", "result": 1400, "unit": "mL/min"}, {"measurement": "Cmax", "setting": "human, plasma, iv, 110 mg m^−2, individual patients, dose 110 mg m^−2, cycle 1inj8, read-out: Cmax", "result": 3.58, "unit": "µg/mL"}, {"measurement": "half-life", "setting": "[5]", "result": 37.2, "unit": "min"}, {"measurement": "Vd", "setting": "[5]", "result": 75, "unit": "L"}, {"measurement": "AUClast", "setting": "[6]", "result": "0.463 µg·h/mL and 0.848 µg·h/mL and 1.143 µg·h/mL"}, {"measurement": "CL (observed)", "setting": "[6]", "result": "181 L/h and 94 L/h and 83 L/h"}, {"measurement": "Cmax", "setting": "[6]", "result": "2.724 µg/mL and 2.253 µg/mL"}, {"measurement": "T1/2λz", "setting": "[6]", "result": "30.6 min and 36.6 min"}, {"measurement": "Vz (observed)", "setting": "[6]", "result": 72, "unit": "L"}, {"measurement": "CL (observed)", "setting": "[7]", "result": 115, "unit": "L/h"}, {"measurement": "Cmax", "setting": "[7]", "result": 1.289, "unit": "µg/mL"}, {"measurement": "T1/2λz", "setting": "[7]", "result": 25.2, "unit": "min"}, {"measurement": "AUClast", "setting": "[8]", "result": 2.51, "unit": "µg·h/mL"}, {"measurement": "CL (observed)", "setting": "[8]", "result": 74, "unit": "L/h"}, {"measurement": "Cmax", "setting": "[8]", "result": 2.968, "unit": "µg/mL"}, {"measurement": "T1/2λz", "setting": "[8]", "result": 49.2, "unit": "min"}, {"measurement": "Vz (observed)", "setting": "[8]", "result": 88, "unit": "L"}, {"measurement": "AUClast", "setting": "[9]", "result": 2.068, "unit": "µg·h/mL"}, {"measurement": "CL (observed)", "setting": "[9]", "result": 89, "unit": "L/h"}, {"measurement": "Cmax", "setting": "[9]", "result": 2.914, "unit": "µg/mL"}, {"measurement": "T1/2λz", "setting": "[9]", "result": 39, "unit": "min"}, {"measurement": "Vz (observed)", "setting": "[9]", "result": 84, "unit": "L"}, {"measurement": "AUClast", "setting": "[10]", "result": "1.151 µg·h/mL and 2.094 µg·h/mL"}, {"measurement": "CL (observed)", "setting": "[10]", "result": "133 L/h and 102 L/h"}, {"measurement": "Cmax", "setting": "[10]", "result": "1.624 µg/mL and 2.057 µg/mL"}, {"measurement": "T1/2λz", "setting": "[10]", "result": 42.6, "unit": "min"}, {"measurement": "Vz (observed)", "setting": "[10]", "result": "45 L and 136 L and 104 L"}, {"measurement": "AUClast", "setting": "[11]", "result": 1.25, "unit": "µg·h/mL"}, {"measurement": "Cmax", "setting": "[11]", "result": "3.672 µg/mL and 1.354 µg/mL"}, {"measurement": "T1/2λz", "setting": "[11]", "result": "36 min and 123 min"}, {"measurement": "Vz (observed)", "setting": "[11]", "result": "52 L and 447 L"}, {"measurement": "AUClast", "setting": "[12]", "result": "2.345 µg·h/mL and 3.842 µg·h/mL"}, {"measurement": "CL (observed)", "setting": "[12]", "result": "70 L/h and 83 L/h"}, {"measurement": "Cmax", "setting": "[12]", "result": "2.75 µg/mL and 3.237 µg/mL"}, {"measurement": "T1/2λz", "setting": "[12]", "result": "41.4 min and 33 min"}, {"measurement": "Vz (observed)", "setting": "[12]", "result": "70 L and 66 L"}, {"measurement": "AUClast", "setting": "[13]", "result": "4.946 µg·h/mL and 3.471 µg·h/mL and 2.021 µg·h/mL"}, {"measurement": "CL (observed)", "setting": "[13]", "result": "55 L/h and 92 L/h and 150 L/h"}, {"measurement": "Cmax", "setting": "[13]", "result": "4.851 µg/mL and 2.869 µg/mL and 1.217 µg/mL"}, {"measurement": "T1/2λz", "setting": "[13]", "result": "53.4 min and 42.6 min"}, {"measurement": "Vz (observed)", "setting": "[13]", "result": "119 L and 153 L"}, {"measurement": "AUClast", "setting": "[14]", "result": 2.349, "unit": "µg·h/mL"}, {"measurement": "CL (observed)", "setting": "[14]", "result": "62 L/h and 169 L/h"}, {"measurement": "Cmax", "setting": "[14]", "result": 2.08, "unit": "µg/mL"}, {"measurement": "T1/2λz", "setting": "[14]", "result": 40.2, "unit": "min"}, {"measurement": "Vz (observed)", "setting": "[14]", "result": "51 L and 164 L"}, {"measurement": "AUClast", "setting": "[15]", "result": "3.389 µg·h/mL and 1.928 µg·h/mL and 3.683 µg·h/mL and 3.397 µg·h/mL and 2.621 µg·h/mL and 2.87 µg·h/mL and 2.465 µg·h/mL and 1.267 µg·h/mL and 4.094 µg·h/mL and 1.578 µg·h/mL"}, {"measurement": "Cmax", "setting": "[15]", "result": "4.159 µg/mL and 2.474 µg/mL and 2.961 µg/mL and 2.774 µg/mL and 2.894 µg/mL and 2.795 µg/mL and 3.202 µg/mL and 1.177 µg/mL and 4.508 µg/mL and 2.625 µg/mL"}, {"measurement": "T1/2λz", "setting": "[15]", "result": "40.8 min and 30 min and 47.4 min and 39.6 min and 81.6 min and 40.2 min and 69 min and 22.8 min and 29.4 min and 41.4 min"}, {"measurement": "Vz (observed)", "setting": "[15]", "result": "63 L and 70 L and 85 L and 196 L and 97 L and 119 L and 118 L and 39 L and 106 L"}, {"measurement": "Cmax", "setting": "[16]", "result": "3.37 µg/mL and 2.274 µg/mL and 2.066 µg/mL and 2.161 µg/mL and 0.493 µg/mL and 4.283 µg/mL"}, {"measurement": "Vz (observed)", "setting": "[16]", "result": "57 L and 74 L and 176 L and 488 L and 214 L and 46 L"}]}
